Measured values from US10064858B2, “Methods and compositions for treating bacterial infections with iron chelators” (THE UNITED STATES OF AMERICA, AS REPRESENTED BY THE …, priority 2011, dated 2018).
Values after ≈ are worked out from the molar mass of the structure shown. “Also recorded” adds a separate entry of the source. Read-outs that look alike come from different tables or passages of the source.

Experiments:
[1] = system: five clinical isolates of A. baumannii and AB19606; experiment: Growth (OD600) of six A. baumannii strains with VK28 in low-iron M9 media; assay type: cell-based; settings: 200 μM VK28 after 4 hr of growth, 24 hr
Experimental: Five clinical isolates of A. baumannii were obtained from Walter Reed Army Medical Center (WRAMC) and compared to the laboratory strain AB19606 from the ATCC. Strains were challenged with either 0 μM or 200 μM VK28 in low-iron M9 media after 4 hr of growth. Growth was estimated by absorbance at 600 nm every 4 hr for 24 hr. Dashed lines represent the same strains treated with 200 μM VK28.

[2] = mouse; systemically/intravenously; cited from earlier work
Klebsiella pneumonia = experiment: Growth (OD600) with VK28 in M9 media with magnesium / calcium; assay type: cell-based; settings: 50-200 μg/ml VK28, 24 hours
Experimental: Klebsiella pneumonia was grown in M9 media containing 2 mM MgSO4 for 24 hours in the presence of 0 μg/ml, 50 μg/ml, 100 μg/ml, or 200 μg/ml VK28. The OD600 was measured at 0, 4, and 24 hour and the results are shown in the time-kill curves of FIG. 16.
Klebsiella pneumonia was grown similar to as described in Example 19 in M9 media containing 2 mM MgSO4 and 1.34 mM CaCl2 for 24 hours in the presence of 0 μg/ml, 50 μg/ml, 100 μg/ml, or 200 μg/ml VK28. The OD600 was measured at 24 hour and the results are shown in the bar graph of FIG. 17.

S. aureus = experiment: MIC in RPMI1640 media (Table 2); assay type: cell-based; settings: Staphylococcus aureus
Experimental: (§1) Individual MICs were determined following the microdilution method recommended by CLSI in cationic-adjusted Mueller-Hinton Broth (CAMHB), or M9 media. […] Tests were performed in triplicate. MIC of iron chelators were determined for noscomial ESKAPE pathogens.
This media is closer to the iron levels in the human body. MICs are in ug/mL.

AB5075 (MRSN959) = experiment: Infected punch biopsy wound in mice, topical treatment; assay type: in vivo
From the text: This example provides an in vivo evaluation of the effectiveness of VK28 in treating a bacterial infection. Mice were wounded with 6 mm punch biopsy and infected with AB5075 (MRSN959) and treated daily for 14 days with poloxamer F-127 gel alone as a control composition (FIG. 11A) or F-127 gel containing 5% VK28 (as a topical composition containing an iron chelator).

[3] = system: Tetracycline-resistant A. baumannii; experiment: Growth (OD600) with VK28, tetracycline or both; assay type: cell-based
From the text: Growth was estimated by absorbance at 600 nm at 24 hr. (y-axis).

[4] = system: A. baumannii strain AB19606; experiment: Growth (OD600) with chelator, Rifampin or both; assay type: cell-based; settings: 1.5×MIC Apo6619 in combination with ¾×MIC Rifampicin
Experimental: A. baumannii strain AB19606 was grown in CAMHB and challenged with 1.5×MIC compound 4 (Var) or 1.5×MIC Triapine (Tri) with or without 0.75×MIC Rifampin (Rif). Growth was estimated by absorbance at 600 nm (y-axis) at 0 or 24 hours.

PA PAO1, PA 27853 = experiment: Checkerboard assay, chelator with antibiotic (FIC); assay type: cell-based, P. aeruginosa
From the text: (§2) Drug interactions were initially evaluated with the “checkerboard” microdilution design, which provided a matrix of all drug combinations assayed in terms of fractions of the previously determined MIC. The checkerboard microdilution design is described in R. J. Tallarida, “Drug Synergism: Its Detection and Applications,” Journal of Pharmacology and Experimental Therapeutics, 865-872 (2001); and in R. L. White, et al., (1996), supra. FIGS. 39A and 39B show the wellplates having different concentrations of iron chelator and antibiotic, as labeled along the x-axis and y-axis.
(§3) The checkerboard assay was used to asses other combinations of iron chelators and antibiotics. The fractional inhibitory concentration index (FIC), which was calculated as follows: FIC=(MIC A in combination/MIC A)+(MIC B in combination/MIC B). Interaction was defined as synergistic if the FIC was <1.0, preferably <0.5, no interaction if the FIC was >1.0 and <4.0, and antagonistic if the FIC was >4.0.
(§4) The assay was run against the multi-drug resistant bacterial species AB 19606, AB 17978, KP ndm, PA PAO1, PA 27853, EC 35718, and EC 43888. Blank spaces indicate concentrations not tested. […] Against the species PA PAO1 and PA 27853, all the antibiotics except for Ami.

KP ndm = experiment: Checkerboard assay, chelator with antibiotic (FIC); assay type: cell-based, K. pneumonia
From the text: as §2, §3, §4

WBA 2090 E. faecilium = experiment: MIC, similar assays; assay type: cell-based
Experimental: as §1

OCCN1CCN(Cc2ccc(O)c3ncccc23)CC1 [VK28, 5-(4-(2-hydroxyethyl)piperazin-1-ylmethyl)-8-hydroxyquinoline]
OD600 values (growth) [1]: greatly decreases the OD600 values | dose showing toxicity [2]: 30 mg/kg | inhibition of growth (OD600) (Klebsiella pneumonia; M9 with 2 mM MgSO4): inhibition of growth is not reduced in the presence of magnesium | inhibition of growth (OD600) (Klebsiella pneumonia; M9 with 2 mM MgSO4 and 1.34 mM CaCl2): inhibition of growth is not reduced in the presence of magnesium and calcium | MIC (S. aureus; ATCC25923, ATCC 25923, read-out: MIC of Iron Chelators): 32 µg/mL | MIC (S. aureus; ATCC 43300 (MRSA), read-out: MIC of Iron Chelators): 16 µg/mL | wound healing (AB5075 (MRSN959); F-127 gel containing 5% VK28, topical, daily for 14 days, vs gel alone (FIG. 11)): Healing scab and reduced wound size; also recorded: the wound treated with the control composition did not heal as well as the wound treated with the iron chelator composition | wound healing (AB5075 (MRSN959); composition containing 1% VK28, other mice): not particularly efficacious | wound healing (AB5075 (MRSN959); composition containing 5% VK28, other mice): efficacious in promoting wound healing | reduction of bacteria (absorbance at 600 nm at 24 hr) ([3]; 400 μM Vk28 in combination with 16 ug/mL tetracycline): the reduction in bacteria was greater than the added reductions from separate administration of tetracycline and VK28 | reduction of bacteria (absorbance at 600 nm at 24 hr) ([3]; single agent: 400 μM Vk28 or 16 ug/mL tetracycline, low-iron M9): significant reduction in bacteria

CNC(=O)c1c(O)c(=O)cc(C)n1C1CC1 [Apo6619, 1-cyclopropyl-3-hydroxy-6-methyl-4-oxo-1,4-dihydro-pyridine-2-carboxylic acid methylamide]
growth (absorbance at 600 nm) at 24 hour [4]: synergistic effect in inhibiting growth of AB19606

Cc1c(O)c(=O)ccn1C [ApoL1, 3-hydroxy-1,2-dimethyl-4(1H)-pyridone]
FIC (PA PAO1, PA 27853; PA 27853, in combination with Amikacin): 1.25 | FIC (PA PAO1, PA 27853; PA 27853, in combination with Cefotaxine): 0.75 | FIC (PA PAO1, PA 27853; PA 27853, in combination with Colisitin): 0.75 | FIC (PA PAO1, PA 27853; PA 27853, in combination with Doxycycline): 0.75 | FIC (PA PAO1, PA 27853; PA 27853, in combination with Rifampin): 0.75 | FIC (PA PAO1, PA 27853; PA PAO1, in combination with Cefotaxine): 0.75 | FIC (PA PAO1, PA 27853; PA PAO1, in combination with Colisitin): 0.75 | FIC (PA PAO1, PA 27853; PA PAO1, in combination with Doxycycline): 0.75 | FIC (PA PAO1, PA 27853; PA PAO1, in combination with Rifampin): 0.75 | FIC (KP ndm; in combination with Colisitin): 1.25 | FIC (KP ndm; in combination with Rifampin): 0.75 | MIC (WBA 2090 E. faecilium): 600 to 700 µg/mL (≈ 4.31 to 5.03 mM)
